Experimental data reported in patent publication US9265253B2, “Use of macrocyclic picolinamides as fungicides” (DOW AGROSCIENCES LLC, priority 2013, dated 2016).

The compounds below were run on Mycosphaerella graminicola; Anamorph: Septoria tritici (assay: Leaf Blotch of Wheat (SEPTTR) disease control). Conditions: Zymoseptoria tritici, 24 h, 1 Day Protectant, rate 100 ppm; read-out: SEPTTR 1 DP disease control.
Assay type: in vivo
Experimental: (§1) Technical grades of materials were dissolved in acetone, which were then mixed with nine volumes of water containing 110 ppm Triton X-100. The fungicide solutions were applied onto wheat seedlings using an automated booth sprayer to run-off. All sprayed plants were allowed to air dry prior to further handling. All fungicides were evaluated using the aforementioned method for their activity vs. all target diseases. Wheat leaf blotch and brown rust activity were also evaluated using track spray applications, in which case the fungicides were formulated as EC formulations, containing 0.1% Trycol 5941 in the spray solutions. Wheat plants (variety Yuma) were grown from seed in a greenhouse in 50% mineral soil/50% soil-less Metro mix until the first leaf was fully emerged, with 7-10 seedlings per pot. These plants were inoculated with an aqueous spore suspension of Septoria tritici either prior to or after fungicide treatments. After inoculation the plants were kept in 100% relative humidity (one day in a dark dew chamber followed by two to three days in a lighted dew chamber at 20° C.) to permit spores to germinate and infect the leaf. The plants were then transferred to a greenhouse set at 20° C. for disease to develop. When disease symptoms were fully expressed on the 1st leaves of untreated plants, infection levels were assessed on a scale of 0 to 100 percent disease severity. Percent disease control was calculated using the ratio of disease severity on treated plants relative to untreated plants.

Row | SMILES | pest or weed control at 100 ppm [%]
1 | COc1ccnc(C(=O)N[C@H]2CCC[C@H](CC3CCCC3)[C@@H](Oc3ccccc3)[C@H](C)OC2=O)c1OC(C)=O [Compound F71] | 80 to 100

Same assay, conditions: Zymoseptoria tritici, 24 h, 1 Day Protectant, rate 121.5 g/H; read-out: SEPTTR 1 DP disease control

Row | SMILES | pest or weed control at 121.5 g/ha [%]
2 | COCCO[C@@H]1[C@@H](Cc2ccccc2)CCC[C@H](NC(=O)c2nccc(OC)c2OCOC(C)=O)C(=O)O[C@H]1C [Compound F112] | 80 to 100
3 | COc1ccnc(C(=O)N[C@H]2CCC[C@H](CC3CCCC3)[C@@H](Oc3ccccc3)[C@H](C)OC2=O)c1OC(C)=O [Compound F71] | 80 to 100
4 | COc1ccnc(C(=O)N[C@H]2CCC[C@H](Cc3ccco3)[C@@H](OCC(C)C)[C@H](C)OC2=O)c1OCOC(C)=O [Compound F120] | 80 to 100

Same assay, conditions: Zymoseptoria tritici, 72 h, 3 Day Curative, rate 100 ppm; read-out: SEPTTR 3 DC disease control

Row | SMILES | pest or weed control at 100 ppm [%]
5 | COc1ccnc(C(=O)N[C@H]2CCC[C@H](CC3CCCC3)[C@@H](Oc3ccccc3)[C@H](C)OC2=O)c1OC(C)=O [Compound F71] | 80 to 100

Same assay, conditions: Zymoseptoria tritici, 72 h, 3 Day Curative, rate 121.5 g/H; read-out: SEPTTR 3 DC disease control

Row | SMILES | pest or weed control at 121.5 g/ha [%]
6 | COCCO[C@@H]1[C@@H](Cc2ccccc2)CCC[C@H](NC(=O)c2nccc(OC)c2OCOC(C)=O)C(=O)O[C@H]1C [Compound F112] | 80 to 100
7 | COc1ccnc(C(=O)N[C@H]2CCC[C@H](CC3CCCC3)[C@@H](Oc3ccccc3)[C@H](C)OC2=O)c1OC(C)=O [Compound F71] | 80 to 100
8 | COc1ccnc(C(=O)N[C@H]2CCC[C@H](Cc3ccco3)[C@@H](OCC(C)C)[C@H](C)OC2=O)c1OCOC(C)=O [Compound F120] | 0 to 80

Each compound was assayed on Puccinia triticina; Synonym: Puccinia recondite f. Sp. Tritici (assay: Wheat Brown Rust (PUCCRT) disease control). Conditions: Puccinia triticina, topical, 24 h, 1 Day Protectant, rate 100 ppm; read-out: PUCCRT 1 DP disease control.
Assay type: in vivo
Experimental: as §1, with “plants. Wheat plants (variety Yuma) were grown from seed in a greenhouse in 50% mineral soil/50% soil-less Metro mix until the first leaf was fully emerged, with 7-10 seedlings per pot. These plants were inoculated with an aqueous spore suspension of Puccinia triticina either prior to or after fungicide treatments. After inoculation the plants were kept in a dark dew room at 22° C. with 100% relative humidity overnight to permit spores to germinate and infect the leaf. The plants were then transferred to a greenhouse set at 24° C. for disease to develop. Fungicide formulation, application and disease assessment followed the procedures as described in the Example A.” for “plants.”

Row | SMILES | pest or weed control at 100 ppm [%]
9 | COc1ccnc(C(=O)N[C@H]2CCC[C@H](CC3CCCC3)[C@@H](Oc3ccccc3)[C@H](C)OC2=O)c1OC(C)=O [Compound F71] | 80 to 100
10 | COc1ccnc(C(=O)N[C@H]2CCC[C@@H]3CCO[C@H]3[C@H](C)OC2=O)c1O [Compound F58] | 80 to 100

Same assay, conditions: Puccinia triticina, topical, 24 h, 1 Day Protectant, rate 121.5 g/H; read-out: PUCCRT 1 DP disease control

Row | SMILES | pest or weed control at 121.5 g/ha [%]
11 | COCCO[C@@H]1[C@@H](Cc2ccccc2)CCC[C@H](NC(=O)c2nccc(OC)c2OCOC(C)=O)C(=O)O[C@H]1C [Compound F112] | 80 to 100
12 | COc1ccnc(C(=O)N[C@H]2CCC[C@H](CC3CCCC3)[C@@H](Oc3ccccc3)[C@H](C)OC2=O)c1OC(C)=O [Compound F71] | 80 to 100
13 | COc1ccnc(C(=O)N[C@H]2CCC[C@H](Cc3ccco3)[C@@H](OCC(C)C)[C@H](C)OC2=O)c1OCOC(C)=O [Compound F120] | 80 to 100

Same assay, conditions: Puccinia triticina, topical, 24 h, Wheat Brown Rust; 1 Day Protectant; rate 100 ppm (high volume application); read-out: Disease control PUCCRT 1 DP

Row | SMILES | pest or weed control at 100 ppm [%]
14 | CCOCC(=O)OCOc1c(OC)ccnc1C(=O)N[C@H]1CCC[C@@H]2CCO[C@H]2[C@H](C)OC1=O [Compound F192] | 80 to 100

Same assay, conditions: Puccinia triticina, topical, 24 h, Wheat Brown Rust; 1 Day Protectant; rate 121.5 g/H (low volume application); read-out: Disease control PUCCRT 1 DP

Row | SMILES | pest or weed control at 121.5 g/ha [%]
15 | CCOCC(=O)OCOc1c(OC)ccnc1C(=O)N[C@H]1CCC[C@@H]2CCO[C@H]2[C@H](C)OC1=O [Compound F192] | 80 to 100

Same assay, conditions: Puccinia triticina, topical, 72 h, 3 Day Curative, rate 100 ppm; read-out: PUCCRT 3 DC disease control

Row | SMILES | pest or weed control at 100 ppm [%]
16 | COc1ccnc(C(=O)N[C@H]2CCC[C@H](CC3CCCC3)[C@@H](Oc3ccccc3)[C@H](C)OC2=O)c1OC(C)=O [Compound F71] | 80 to 100
17 | COc1ccnc(C(=O)N[C@H]2CCC[C@@H]3CCO[C@H]3[C@H](C)OC2=O)c1O [Compound F58] | 80 to 100

Same assay, conditions: Puccinia triticina, topical, 72 h, 3 Day Curative, rate 121.5 g/H; read-out: PUCCRT 3 DC disease control

Row | SMILES | pest or weed control at 121.5 g/ha [%]
18 | COCCO[C@@H]1[C@@H](Cc2ccccc2)CCC[C@H](NC(=O)c2nccc(OC)c2OCOC(C)=O)C(=O)O[C@H]1C [Compound F112] | 80 to 100
19 | COc1ccnc(C(=O)N[C@H]2CCC[C@H](CC3CCCC3)[C@@H](Oc3ccccc3)[C@H](C)OC2=O)c1OC(C)=O [Compound F71] | 0 to 80

Same assay, conditions: Puccinia triticina, topical, 72 h, Wheat Brown Rust; 3 Day Curative; rate 100 ppm (high volume application); read-out: Disease control PUCCRT 3 DC

Row | SMILES | pest or weed control at 100 ppm [%]
20 | CCOCC(=O)OCOc1c(OC)ccnc1C(=O)N[C@H]1CCC[C@@H]2CCO[C@H]2[C@H](C)OC1=O [Compound F192] | 80 to 100

Same assay, conditions: Puccinia triticina, topical, 72 h, Wheat Brown Rust; 3 Day Curative; rate 121.5 g/H (low volume application); read-out: Disease control PUCCRT 3 DC

Row | SMILES | pest or weed control at 121.5 g/ha [%]
21 | CCOCC(=O)OCOc1c(OC)ccnc1C(=O)N[C@H]1CCC[C@@H]2CCO[C@H]2[C@H](C)OC1=O [Compound F192] | 80 to 100
